# Assay results from ChEMBL document CHEMBL4808243, “Harmine-inspired design and synthesis of benzo[d]imidazo[2,1-b]thiazole derivatives bearing 1,3,4-oxadiazole moiety as potential tumor suppressors” (Bioorg Med Chem, 2021).
# Calls of active or inactive are those of the source. The calls are words filed in the database; no cut-off is given here.
# How the values were obtained:
# Format in all cases: functional, cell-based
# A549 [1] = experiment: Antiproliferative activity against human A549 cells assessed as inhibition of cell growth incubated for 72 hrs by MTT assay; conditions: A549, 72 h
# NCI-H2228 = experiment: Antiproliferative activity against human EML4-ALK positive H2228 cells assessed as inhibition of cell growth incubated for 72 hrs by MTT assay; conditions: NCI-H2228, 72 h
# A549 [2] = experiment: Inhibition of epithelial-mesenchymal transition in human A549 cells assessed as suppression of Twist 1 expression at 17 uM measured after 24 hrs by Western blot analysis
# A549 [3] = experiment: Induction of apoptosis in human A549 cells by flow cytometry analysis
# A549 [4] = experiment: Inhibition of epithelial-mesenchymal transition in human A549 cells assessed as suppression of Twist 1 expression measured after 24 hrs by Western blot analysis; conditions: dose 0.5-2 µM
Compound,IC50 (A549 [1]) [µM],IC50 (NCI-H2228) [µM],Activity (A549 [2]),Activity (A549 [3]),Activity (A549 [4])
Cc1nc2sc3ccccc3n2c1-c1nnc(CN2CCCC2)o1,7.7,26.5,–,–,–
Cc1nc2sc3ccccc3n2c1-c1nnc(CCN2CCN(CCO)CC2)o1,6.95,14,–,–,–
CCN(CC)CCc1nnc(-c2c(C)nc3sc4ccccc4n23)o1,9.55,23.9,–,–,–
Cc1nc2sc3ccccc3n2c1-c1nnc(CCN2CCC(C)CC2)o1,2.38,13.4,–,–,–
CCN(CC)Cc1nnc(-c2c(C)nc3sc4ccccc4n23)o1,10.7,21.6,–,–,–
COc1ccc2c(c1)[nH]c1c(C)nccc12 [HARMINE],17.1,31.1,Active,–,–
CCCN1CCN(CCc2nnc(-c3c(C)nc4sc5ccccc5n34)o2)CC1,11.1,22.2,–,–,–
Cc1nc2sc3ccccc3n2c1-c1nnc(CN(C)C)o1,9.26,15.3,–,–,–
Cc1nc2sc3ccccc3n2c1-c1nnc(CCN(C)C)o1,11.9,19,–,–,–
Cc1nc2sc3ccccc3n2c1-c1nnc(CNCCO)o1,8.46,17.8,–,–,–
Cc1nc2sc3ccccc3n2c1-c1nnc(CN2CCC(C)CC2)o1,12.8,23.1,–,–,–
Cc1nc2sc3ccccc3n2c1-c1nnc(CCN2CC(O)C2)o1,9.63,22.5,–,–,–
Cc1nc2sc3ccccc3n2c1-c1nnc(CCN2CCCCC2)o1,2.03,9.8,–,inactive,Dose-Dependent Effect
Cc1nc2sc3ccccc3n2c1-c1nnc(CCNCCO)o1,10.7,16.5,–,–,–
Cc1nc2sc3ccccc3n2c1-c1nnc(CN2CCCCC2)o1,15.1,19.2,–,–,–
Cc1nc2sc3ccccc3n2c1-c1nnc(CN2CCN(CCO)CC2)o1,4.41,14.9,–,–,–
Cc1nc2sc3ccccc3n2c1-c1nnc(CNC2CCCC2)o1,3.92,17.4,–,–,–
Cc1nc2sc3ccccc3n2c1-c1nnc(CN2CC(O)C2)o1,12.3,27.2,–,–,–
Cc1nc2sc3ccccc3n2c1-c1nnc(CCN2CCCC2)o1,12.2,23.5,–,–,–
Cc1nc2sc3ccccc3n2c1-c1nnc(CCN2CCC(O)CC2)o1,7.66,15.4,–,–,–
Cc1nc2sc3ccccc3n2c1-c1nnc(CN2CCC(O)CC2)o1,15,12.2,–,–,–
Cc1nc2sc3ccccc3n2c1-c1nnc(CCNC2CCCC2)o1,15,18.6,–,–,–
CCCN1CCN(Cc2nnc(-c3c(C)nc4sc5ccccc5n34)o2)CC1,13.7,21.8,–,–,–
